{"source": "ChEMBL document CHEMBL3868595", "about": "“Plazomicin is effective in a non-human primate pneumonic plague model” (Bioorg Med Chem, 2016)", "key": {"African green monkey [1]": {"system": "African green monkey", "assay": "Toxicity in African green monkey 7653 model infected with Yersinia pestis Colorado 92 assessed as serum gamma glutamyl-transferase level at 25 mg/kg, iv administered within 6 hrs post onset of sustained fever as 30 mins infusion for 10 days (reference value: 37 IU/L)", "assay_type": "organism-based", "details": "chlorocebus sabaeus, in vivo"}, "Yersinia pestis [2]": {"system": "Yersinia pestis", "assay": "Antibacterial activity against Yersinia pestis Colorado 92 infected in African green monkey C2083 model assessed as bacterial burden in heart at 12.5 mg/kg, iv administered within 6 hrs post onset of sustained fever as 30 mins infusion for 5 days (reference value: 2.6 10^7CFU/g)", "assay_type": "functional, CO92"}, "Yersinia pestis [3]": {"system": "Yersinia pestis", "assay": "Antibacterial activity against Yersinia pestis Colorado 92 infected in African green monkey B6988 model assessed as bacterial burden in spleen at 6.25 mg/kg, iv administered within 6 hrs post onset of sustained fever as 30 mins infusion for 5 days (reference value: 1.6 10^9CFU/g)", "assay_type": "functional, CO92"}, "Yersinia pestis [4]": {"system": "Yersinia pestis", "assay": "Antibacterial activity against Yersinia pestis Colorado 92 infected in African green monkey B6469 model assessed as bacterial burden in kidney at 25 mg/kg, iv administered within 6 hrs post onset of sustained fever as 30 mins infusion for 5 days (reference value: 7.1 10^7CFU/g)", "assay_type": "functional, organism-based", "details": "CO92"}, "African green monkey [5]": {"system": "African green monkey", "assay": "Toxicity in African green monkey B6291 model infected with Yersinia pestis Colorado 92 assessed as serum alanine aminotransferase level at 25 mg/kg, iv administered within 6 hrs post onset of sustained fever as 30 mins infusion for 10 days (reference value: 47 IU/L)", "assay_type": "organism-based", "details": "chlorocebus sabaeus, in vivo"}, "African green monkey [6]": {"system": "African green monkey", "assay": "Toxicity in African green monkey B6127 model infected with Yersinia pestis Colorado 92 assessed as inappetence at 25 mg/kg, iv administered within 6 hrs post onset of sustained fever as 30 mins infusion for 10 days", "assay_type": "organism-based", "details": "chlorocebus sabaeus, in vivo"}, "Yersinia pestis [7]": {"system": "Yersinia pestis", "assay": "Antibacterial activity against Yersinia pestis Colorado 92 infected in African green monkey C2149 model assessed as bacterial burden in heart at 6.25 mg/kg, iv administered within 6 hrs post onset of sustained fever as 30 mins infusion for 5 days (reference value: 2.6 10^7CFU/g)", "assay_type": "functional, CO92"}, "African green monkey [8]": {"system": "African green monkey", "assay": "Toxicity in African green monkey 7929 model infected with Yersinia pestis Colorado 92 assessed as blood urea nitrogen level at 25 mg/kg, iv administered within 6 hrs post onset of sustained fever as 30 mins infusion for 10 days (reference value: 15 mg/dl)", "assay_type": "organism-based", "details": "chlorocebus sabaeus, in vivo"}, "Yersinia pestis [9]": {"system": "Yersinia pestis", "assay": "Antibacterial activity against Yersinia pestis Colorado 92 infected in African green monkey B6889 model assessed as bacterial burden in brain at 6.25 mg/kg, iv administered within 6 hrs post onset of sustained fever as 30 mins infusion for 5 days (reference value: 1.9 10^6CFU/g)", "assay_type": "functional, CO92"}, "African green monkey [10]": {"system": "African green monkey", "assay": "Toxicity in African green monkey 8067 model infected with Yersinia pestis Colorado 92 assessed as serum gamma glutamyl-transferase level at 25 mg/kg, iv administered within 6 hrs post onset of sustained fever as 30 mins infusion for 10 days (reference value: 40 IU/L)", "assay_type": "organism-based", "details": "chlorocebus sabaeus, in vivo"}, "Yersinia pestis [11]": {"system": "Yersinia pestis", "assay": "Antibacterial activity against Yersinia pestis Colorado 92 infected in African green monkey B6106 model assessed as bacterial burden in heart at 25 mg/kg, iv administered within 6 hrs post onset of sustained fever as 30 mins infusion for 5 days (reference value: 2.6 10^7CFU/g)", "assay_type": "functional, organism-based", "details": "CO92"}, "[12]": {"assay": "Toxicity in African green monkey B6291 model infected with Yersinia pestis Colorado 92 assessed as total white blood cell count at 25 mg/kg, iv administered within 6 hrs post onset of sustained fever as 30 mins infusion for 10 days (reference value: 12 10^3/microL)", "assay_type": "organism-based", "details": "chlorocebus aethiops, in vivo"}, "Yersinia pestis [13]": {"system": "Yersinia pestis", "assay": "Antibacterial activity against Yersinia pestis Colorado 92 infected in African green monkey B6861 model assessed as bacterial burden in brain at 6.25 mg/kg, iv administered within 6 hrs post onset of sustained fever as 30 mins infusion for 5 days (reference value: 1.9 10^6CFU/g)", "assay_type": "functional, CO92"}, "[14]": {"assay": "Toxicity in African green monkey B5994 model infected with Yersinia pestis Colorado 92 assessed as total white blood cell count at 25 mg/kg, iv administered within 6 hrs post onset of sustained fever as 30 mins infusion for 10 days (reference value: 8 10^3/microL)", "assay_type": "organism-based", "details": "chlorocebus aethiops, in vivo"}, "[15]": {"assay": "Elimination half life in African green monkey blood at 25 mg/kg administered as iv infusion twice daily for 7 consecutive days measured on day 7 by LC-MS/MS analysis", "assay_type": "ADME, organism-based", "details": "chlorocebus aethiops, read-out: beta t1/2 (converted)"}, "African green monkey [16]": {"system": "African green monkey", "assay": "Toxicity in African green monkey B6428 model infected with Yersinia pestis Colorado 92 assessed as serum creatinine level at 25 mg/kg, iv administered within 6 hrs post onset of sustained fever as 30 mins infusion for 10 days (reference value: 0.8 mg/dl)", "assay_type": "organism-based", "details": "chlorocebus sabaeus, in vivo"}, "Yersinia pestis [17]": {"system": "Yersinia pestis", "assay": "Antibacterial activity against Yersinia pestis Colorado 92 infected in African green monkey B6783 model assessed as bacterial burden in spleen at 12.5 mg/kg, iv administered within 6 hrs post onset of sustained fever as 30 mins infusion for 5 days (reference value: 1.6 10^9CFU/g)", "assay_type": "functional, CO92"}}}
{"smiles": "CN[C@@H]1[C@@H](O)[C@@H](O[C@@H]2[C@@H](O)[C@H](O[C@H]3OC(CNCCO)=CC[C@H]3N)[C@@H](N)C[C@H]2NC(=O)[C@@H](O)CCN)OC[C@]1(C)O", "note": "[PLAZOMICIN]", "values": [{"measurement": "Activity", "setting": "African green monkey [1]", "result": 27, "unit": "IU/L"}, {"measurement": "Activity", "setting": "Yersinia pestis [2]", "result": 1.5, "unit": "×10⁷ CFU/g"}, {"measurement": "Activity", "setting": "Yersinia pestis [3]", "result": 17, "unit": "CFU/g"}, {"measurement": "Activity", "setting": "Yersinia pestis [4]", "result": "Below limit of detection"}, {"measurement": "Activity", "setting": "African green monkey [5]", "result": 68, "unit": "IU/L"}, {"measurement": "Activity", "setting": "African green monkey [6]", "result": "Toxic"}, {"measurement": "Activity", "setting": "Yersinia pestis [7]", "result": 9.7, "unit": "×10⁶ CFU/g"}, {"measurement": "Activity", "setting": "African green monkey [8]", "result": 17, "unit": "mg/dL"}, {"measurement": "Activity", "setting": "Yersinia pestis [9]", "result": 80, "unit": "CFU/g"}, {"measurement": "Activity", "setting": "African green monkey [10]", "result": 26, "unit": "IU/L"}, {"measurement": "Activity", "setting": "Yersinia pestis [11]", "result": "Below limit of detection"}, {"measurement": "Activity", "setting": "[12]", "result": 5.9, "unit": "×10³ /uL"}, {"measurement": "Activity", "setting": "Yersinia pestis [13]", "result": 12, "unit": "CFU/g"}, {"measurement": "Activity", "setting": "[14]", "result": 4.5, "unit": "×10³ /uL"}, {"measurement": "half-life", "setting": "[15]", "result": 1.8, "unit": "h"}, {"measurement": "Activity", "setting": "African green monkey [16]", "result": 0.6, "unit": "mg/dL"}, {"measurement": "Activity", "setting": "Yersinia pestis [17]", "result": 10, "unit": "CFU/g"}]}
